Laboratory results from patent US12054487B2, “Muscarinic acetylcholine M1 receptor antagonists” (Contineum Therapeutics, Inc., priority 2018, dated 2024).

Key:
Assay type in all cases: cell-based
[1] = target: T1, human M1 receptor (Homo sapiens, UniProt P11229); experiment: In vitro functional assay of muscarinic acetylcholine receptor activity (aequorin calcium flux, antagonist mode vs EC80 acetylcholine), M1; settings: CHO-K1 cells stably expressing human M1 receptor with Aequorin; decrease in EC80 acetylcholine response
T1 construct: host or cells: CHO-K1
T1 sequence (P11229 1-460): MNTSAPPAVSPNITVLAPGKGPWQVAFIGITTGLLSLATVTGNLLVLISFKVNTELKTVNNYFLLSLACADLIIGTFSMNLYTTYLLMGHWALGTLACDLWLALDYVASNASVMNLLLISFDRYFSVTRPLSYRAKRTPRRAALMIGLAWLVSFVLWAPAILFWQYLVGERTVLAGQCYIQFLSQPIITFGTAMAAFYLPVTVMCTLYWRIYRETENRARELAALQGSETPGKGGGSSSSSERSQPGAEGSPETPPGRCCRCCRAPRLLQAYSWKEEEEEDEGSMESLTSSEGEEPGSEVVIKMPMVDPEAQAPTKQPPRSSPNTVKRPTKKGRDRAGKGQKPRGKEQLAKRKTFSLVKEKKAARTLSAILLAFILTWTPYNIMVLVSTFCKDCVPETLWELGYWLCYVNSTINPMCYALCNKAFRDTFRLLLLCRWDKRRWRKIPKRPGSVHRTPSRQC
Description: (§1) CHO-K1 cells stably expressing human M1 receptor with Aequorin (Perkin Elmer) were grown in F12 media, 10% FBS with 0.4 mg/mL geneticin and […]. Cells were grown to confluence and frozen down to be assayed at a later date. On the day of the experiment cells were thawed in a 37° C. water bath, resuspended in DMEM/HAM's F12 with HEPES (Invitrogen)+0.1% protease-free BSA (assay buffer), and spun down to remove freezing media. After centrifugation, supernatant was removed and 12 mL of assay buffer was added. Coelenterazine h (Promega) was added to the cells at a final concentration of 5 uM and incubated for 4 hours at room temperature in the dark. Compound master plate-96 deep well (Corning) were formatted in a 8-point DRC in assay buffer with 0.2% DMSO at a starting concentration of 60 uM (2×). After 4 hours of incubation, cells were plated at a concentration of 5×10^5 cells/well in 96 well white-walled, tissue culture-treated, clear-bottom plates (VWR). Compounds were added to the daughter plate, and cells plus compound were incubated at room temperature for 30 minutes in the dark.
(§2) Calcium flux was measured using the FlexStation 3 (Molecular Devices). To measure the antagonist dose-response, the EC80 of Acetylcholine was injected to the daughter plate using the automated compound transfer function of the Flex Station, and the increase in luminescence was measured over time. Antagonist activity was analyzed as a concentration dependent decrease in the EC80 acetylcholine response. Dose response curves were generated using Prism (GraphPad Software). The IC50 of the compounds was calculated from the dose response curve.

[2] = target: T2, M2 (Homo sapiens, UniProt P08172); experiment: In vitro functional assay of muscarinic acetylcholine receptor activity, M2; settings: antagonist activity; M2 method not separately described
T2 sequence (P08172 1-466): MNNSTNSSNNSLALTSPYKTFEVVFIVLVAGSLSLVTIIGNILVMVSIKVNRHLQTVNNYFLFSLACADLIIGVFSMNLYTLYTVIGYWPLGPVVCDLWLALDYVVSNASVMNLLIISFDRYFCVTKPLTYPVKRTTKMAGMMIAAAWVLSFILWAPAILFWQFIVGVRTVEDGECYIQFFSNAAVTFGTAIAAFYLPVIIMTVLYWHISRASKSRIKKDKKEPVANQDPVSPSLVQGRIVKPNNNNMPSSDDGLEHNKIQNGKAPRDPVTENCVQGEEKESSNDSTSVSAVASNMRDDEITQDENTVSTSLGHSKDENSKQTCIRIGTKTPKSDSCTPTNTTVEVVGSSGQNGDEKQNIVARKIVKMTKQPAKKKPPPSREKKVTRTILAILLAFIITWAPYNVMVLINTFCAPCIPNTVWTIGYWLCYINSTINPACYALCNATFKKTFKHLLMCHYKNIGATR
Description: [The procedure below names another target; the source lists this target under the same test.] as §1, §2

[3] = target: M3 (Homo sapiens, UniProt P20309); experiment: In vitro functional assay of muscarinic acetylcholine receptor activity, M3; settings: antagonist activity; M3 method not separately described
Description: [The procedure below names another target; the source lists this target under the same test.] as §1, §2

M3, sequence (P20309 whole entry): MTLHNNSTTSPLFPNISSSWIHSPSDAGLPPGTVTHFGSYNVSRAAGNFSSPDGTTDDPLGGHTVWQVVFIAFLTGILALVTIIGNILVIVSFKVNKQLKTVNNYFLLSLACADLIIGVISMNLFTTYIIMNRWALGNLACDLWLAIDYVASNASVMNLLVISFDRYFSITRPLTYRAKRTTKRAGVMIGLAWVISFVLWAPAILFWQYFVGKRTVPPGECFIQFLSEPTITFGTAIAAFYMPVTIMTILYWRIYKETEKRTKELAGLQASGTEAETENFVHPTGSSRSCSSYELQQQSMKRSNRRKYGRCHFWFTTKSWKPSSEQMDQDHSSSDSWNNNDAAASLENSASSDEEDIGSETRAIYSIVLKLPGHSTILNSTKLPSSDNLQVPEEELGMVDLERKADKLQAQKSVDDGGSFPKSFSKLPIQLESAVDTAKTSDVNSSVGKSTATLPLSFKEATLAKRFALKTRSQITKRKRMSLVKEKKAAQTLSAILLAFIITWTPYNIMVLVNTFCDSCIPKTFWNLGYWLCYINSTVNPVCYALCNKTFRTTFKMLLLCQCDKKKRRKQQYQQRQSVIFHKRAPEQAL

IC50 [1] [µM] | IC50 [2] [µM] | IC50 [3] [µM] | SMILES
< 0.1 | 1 to 10 | 1 to 10 | O=C1[C@@H](CCCc2c(F)ccn3ncnc23)C[C@H]2CN(c3ccc(F)cn3)CCN12 [Example 78, (7S,8aS)-7-(3-{7-fluoro-[1,2,4]triazolo[1,5-a]pyridin-8-yl}propyl)-2-(5-fluoropyridin-2-yl)-octahydropyrrolo[1,2-a]pyrazin-6-one]
< 0.1 | 0.1 to 1 | 1 to 10 | O=C1[C@@H](CCCc2cccn3ncnc23)C[C@H]2CN(c3ncc(Cl)cn3)CCN12 [Example 64, (7S,8aS)-7-(3-([1,2,4]triazolo[1,5-a]pyridin-8-yl)propyl)-2-(5-chloropyrimidin-2-yl)hexahydropyrrolo[1,2-a]pyrazin-6(2H)-one]
< 0.1 | < 0.1 | 0.1 to 1 | N#Cc1ccc(N2CCN3C(=O)[C@@H](CCCc4cccc5nccnc45)C[C@H]3C2)nc1 [Example 60, 6-((7S,8aS)-6-oxo-7-(3-(quinoxalin-5-yl)propyl)hexahydropyrrolo[1,2-a]pyrazin-2(1H)-yl)nicotinonitrile]
< 0.1 | 1 to 10 | 1 to 10 | O=C1[C@@H](CCCc2cccn3nccc23)C[C@H]2CN(c3ncc(F)cn3)CCN12 [Example 88, (7S,8aS)-2-(5-fluoropyrimidin-2-yl)-7-(3-(pyrazolo[1,5-a]pyridin-4-yl)propyl)hexahydropyrrolo[1,2-a]pyrazin-6(2H)-one]
< 0.1 | < 0.1 | 0.1 to 1 | O=C1[C@@H](CCCc2cccc3ncnn23)C[C@H]2CN(c3ccc(C4CC4)cn3)CCN12 [Example 45, (8aS)-7-(3-([1,2,4]triazolo[1,5-a]pyridin-5-yl)propyl)-2-(5-cyclopropylpyridin-2-yl)hexahydropyrrolo[1,2-a]pyrazin-6(2H)-one]
0.1 to 1 | 1 to 10 | 1 to 10 | N#Cc1ccc(N2CCN3C(=O)[C@@H](CCCc4cccc5cncn45)C[C@H]3C2)nc1 [Example 14, 6-((7S,8aS)-7-(3-(imidazo[1,5-a]pyridin-5-yl)propyl)-6-oxohexahydropyrrolo[1,2-a]pyrazin-2(1H)-yl)nicotinonitrile]
0.1 to 1 | > 10 | 1 to 10 | N#Cc1ccc(N2CCN3C(=O)[C@@H](CCCc4cccn5ccnc45)C[C@H]3C2)nc1 [Example 15]
< 0.1 | 1 to 10 | 1 to 10 | O=C1[C@@H](CCCc2cccc3ncsc23)C[C@H]2CN(c3ccncc3F)CCN12 [Example 2, (7S,8a5)-7-(3-(benzo [d]thiazol-7-yl)propyl)-2-(3-fluoropyridin-4-yl)hexahydropyrrolo[1,2-a]pyrazin-6(2H)-one]
0.1 to 1 | 0.1 to 1 | 0.1 to 1 | N#Cc1ccc(N2CCN3C(=O)[C@@H](CCCc4cccc5nncn45)C[C@H]3C2)nc1 [Example 16, 6-((7S,8aS)-7-(3-([1,2,4]triazolo[4,3-a]pyridin-5-yl)propyl)-6-oxohexahydropyrrolo[1,2-a]pyrazin-2(1H)-yl)nicotinonitrile]
< 0.1 | 1 to 10 | 1 to 10 | Cc1nc2cccc(CCC[C@H]3C[C@H]4CN(c5ccc(C#N)cn5)CCN4C3=O)c2o1 [Example 21, 6-((7S,8aS)-7-(3-(2-methylbenzo[d]oxazol-7-yl)propyl)-6-oxohexahydropyrrolo[1,2-a]pyrazin-2(1H)-yl)nicotinonitrile]
< 0.1 | 0.1 to 1 | 0.1 to 1 | N#Cc1ccc(N2CCN3C(=O)[C@@H](CCCc4cccnn4)C[C@H]3C2)nc1 [Example 56, 6-((7S,8aS)-6-oxo-7-(3-(pyridazin-3-yl)propyl)hexahydropyrrolo[1,2-a]pyrazin-2(1H)-yl)nicotinonitrile]
< 0.1 | 1 to 10 | 1 to 10 | O=C1[C@@H](CCCc2cccn3ncnc23)C[C@H]2CN(c3ccc(F)cn3)CCN12 [Example 62, (7S,8aS)-2-(5-fluoropyridin-2-yl)-7-(3-{[1,2,4]triazolo[1,5-a]pyridin-8-yl}propyl)-octahydropyrrolo[1,2-a]pyrazin-6-one]
< 0.1 | 0.1 to 1 | 0.1 to 1 | CS(=O)(=O)c1ccc(N2CCN3C(=O)[C@@H](CCCc4cccc5ncsc45)C[C@H]3C2)nc1 [Example 13, (7S,8aS)-7-(3-(benzo[d]thiazol-7-yl)propyl)-2-(5-(methylsulfonyl)pyridin-2-yl)hexahydropyrrolo[1,2-a]pyrazin-6(2H)-one]
0.1 to 1 | > 10 | > 10 | O=C1C(CCCc2cccc3ncnn23)C[C@H]2CN(c3ccc(F)cn3)CCN12 (single isomer, unassigned) [Example 50]
< 0.1 | 1 to 10 | 1 to 10 | COCc1ccc(N2CCN3C(=O)[C@@H](CCCc4cccc5ncnn45)C[C@H]3C2)nc1 [Example 49, (7S,8aS)-7-(3-([1,2,4]triazolo[1,5-a]pyridin-5-yl)propyl)-2-(5-(methoxymethyl)pyridin-2-yl)hexahydropyrrolo[1,2-a]pyrazin-6(2H)-one]
< 0.1 | 1 to 10 | 1 to 10 | COc1ccc(N2CCN3C(=O)C(CCCc4cccn5ncnc45)C[C@H]3C2)nc1 (mixture of isomers) [Example 72, (7S,8aS)-7-(3-([1,2,4]triazolo[1,5-a]pyridin-8-yl)propyl)-2-(5-methoxypyridin-2-yl)hexahydropyrrolo[1,2-a]pyrazin-6(2H)-one]
< 0.1 | 0.1 to 1 | 1 to 10 | Cn1cnc2cccc(CCC[C@H]3C[C@H]4CN(c5ccc(C#N)cn5)CCN4C3=O)c21 [Example 54, 6-((7S,8aS)-7-(3-(1-methyl-1H-benzo[d]imidazol-7-yl)propyl)-6-oxohexahydropyrrolo[1,2-a]pyrazin-2(1H)-yl)nicotinonitrile]
0.1 to 1 | 1 to 10 | 1 to 10 | O=C1[C@@H](CCCc2cccc3ncnn23)C[C@H]2CN(c3ccnc(C(F)(F)F)c3)CCN12 [Example 33, (7S,8aS)-7-(3-([1,2,4]triazolo[1,5-a]pyridin-5-yl)propyl)-2-(2-(trifluoromethyl)pyridin-4-yl)hexahydropyrrolo[1,2-a]pyrazin-6(2H)-one]
< 0.1 | 0.1 to 1 | 0.1 to 1 | N#Cc1ccc(N2CCN3C(=O)[C@@H](CCCc4cccc5ncnn45)C[C@H]3C2)nc1 [Example 4, 6-((7S,8aS)-7-(3-([1,2,4]triazolo [1,5-a]pyridin-5-yl)propyl)-6-oxohexahydropyrrolo [1,2-a]pyrazin-2(1H)-yl)nicotinonitrile]
< 0.1 | > 10 | 1 to 10 | O=C1[C@@H](CCCc2cccc3nccnc23)C[C@H]2CN(c3ccc(F)cn3)CCN12 [Example 93, (7S,8aS)-2-(5-fluoropyridin-2-yl)-7-(3-(quinoxalin-5-yl)propyl)hexahydropyrrolo[1,2-a]pyrazin-6(2H)-one]
0.1 to 1 | 1 to 10 | 1 to 10 | O=C1[C@@H](CCCc2cccn3nccc23)C[C@H]2CN(c3ccc(F)cn3)CCN12 [Example 87, (7S,8aS)-2-(5-fluoropyridin-2-yl)-7-(3-(pyrazolo[1,5-a]pyridin-4-yl)propyl)hexahydropyrrolo[1,2-a]pyrazin-6(2H)-one]
